Experimental data reported in patent US20140163026A1, “8-ETHYL-6-(ARYL)PYRIDO[2,3-D]PYRIMIDIN-7(8H)-ONES FOR THE TREATMENT OF NERVOUS SYSTEM DISORDERS AND CANCER” (Afraxis Holdings, Inc., priority 2011, published 2014).
pIC50: −log10 of the molar value.

Assays:
Format in all cases: biochemical
[1] = target: PAK4 (Homo sapiens, UniProt O96013); assay: In vitro PAK inhibition assay (SelectScreen, Ser/Thr 20 peptide)
Method in brief: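 FRET-based Ser/Thr 20 peptide phosphorylation: 0.1-0.75 ng PAK4, 2 μM peptide in 50 mM HEPES pH 7.5, 10 mM MgCl2, 1 mM EGTA, 0.01% BRIJ-35, 1% DMSO; 60 min at room temperature, then 60 min protease development. 10-point 3-fold titrations; IC50 from sigmoidal fit.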

[2] = target: PAK3 (Homo sapiens, UniProt O75914); assay: as above
PAK3, sequence (O75914 whole entry): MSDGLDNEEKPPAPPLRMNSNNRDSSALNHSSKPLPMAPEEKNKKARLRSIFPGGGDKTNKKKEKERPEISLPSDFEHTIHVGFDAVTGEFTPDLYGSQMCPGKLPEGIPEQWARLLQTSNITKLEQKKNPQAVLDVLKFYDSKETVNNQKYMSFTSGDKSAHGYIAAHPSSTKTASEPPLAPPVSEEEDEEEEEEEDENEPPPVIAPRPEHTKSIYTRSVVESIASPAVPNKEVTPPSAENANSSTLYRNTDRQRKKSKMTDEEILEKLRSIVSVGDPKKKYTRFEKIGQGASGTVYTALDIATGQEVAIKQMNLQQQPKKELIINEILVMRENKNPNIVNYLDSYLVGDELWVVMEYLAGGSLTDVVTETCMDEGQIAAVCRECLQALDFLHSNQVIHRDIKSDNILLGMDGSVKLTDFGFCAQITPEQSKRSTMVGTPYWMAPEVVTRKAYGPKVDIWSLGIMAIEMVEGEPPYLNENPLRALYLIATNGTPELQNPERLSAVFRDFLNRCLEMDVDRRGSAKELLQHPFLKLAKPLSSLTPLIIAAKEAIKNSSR
Method in brief: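 PAK3 phosphorylation of Ser/Thr 20 peptide in 50 mM HEPES pH 7.5, 0.01% BRIJ-35, 10 mM MgCl2, 1 mM EGTA, 1% DMSO final; 60 min at room temperature, then 60 min development reaction with fluorescence read-out. 10-point 3-fold titrations; percent phosphorylation from 0% and 100% phosphopeptide controls.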

[3] = target: PAK1 (Homo sapiens, UniProt Q13153); assay: In vitro PAK inhibition assay (SelectScreen, Ser/Thr 19 peptide)
PAK1, sequence (Q13153 whole entry): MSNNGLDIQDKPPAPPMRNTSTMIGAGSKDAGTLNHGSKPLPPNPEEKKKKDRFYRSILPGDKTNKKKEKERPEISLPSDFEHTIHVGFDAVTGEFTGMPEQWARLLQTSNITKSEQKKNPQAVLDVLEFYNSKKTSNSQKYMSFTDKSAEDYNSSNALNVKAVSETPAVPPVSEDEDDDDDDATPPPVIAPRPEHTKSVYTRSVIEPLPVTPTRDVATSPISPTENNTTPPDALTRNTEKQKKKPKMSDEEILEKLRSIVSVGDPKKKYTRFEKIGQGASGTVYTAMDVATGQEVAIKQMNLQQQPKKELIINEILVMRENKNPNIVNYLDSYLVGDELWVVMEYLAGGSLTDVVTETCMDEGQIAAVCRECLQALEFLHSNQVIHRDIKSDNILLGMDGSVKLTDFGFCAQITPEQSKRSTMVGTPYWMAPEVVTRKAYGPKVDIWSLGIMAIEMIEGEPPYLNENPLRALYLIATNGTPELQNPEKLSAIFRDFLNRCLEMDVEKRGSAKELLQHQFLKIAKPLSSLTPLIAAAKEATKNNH
Method in brief: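 Kinase reaction ran in 50 mM HEPES pH 7.5, 0.01% BRIJ-35, 10 mM MgCl2, 1 mM EGTA with Ser/Thr 19 peptide for 60 min at room temperature, followed by 60 min protease development. Fluorescence gave percent phosphorylation. Compounds were tested as 10-point, 3-fold titrations in 1% DMSO final.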

[4] = target: PAK2 (PAK65) (Homo sapiens, UniProt Q13177); assay: In vitro PAK inhibition assay (SelectScreen, Ser/Thr 20 peptide)
PAK2 (PAK65), sequence (Q13177 whole entry): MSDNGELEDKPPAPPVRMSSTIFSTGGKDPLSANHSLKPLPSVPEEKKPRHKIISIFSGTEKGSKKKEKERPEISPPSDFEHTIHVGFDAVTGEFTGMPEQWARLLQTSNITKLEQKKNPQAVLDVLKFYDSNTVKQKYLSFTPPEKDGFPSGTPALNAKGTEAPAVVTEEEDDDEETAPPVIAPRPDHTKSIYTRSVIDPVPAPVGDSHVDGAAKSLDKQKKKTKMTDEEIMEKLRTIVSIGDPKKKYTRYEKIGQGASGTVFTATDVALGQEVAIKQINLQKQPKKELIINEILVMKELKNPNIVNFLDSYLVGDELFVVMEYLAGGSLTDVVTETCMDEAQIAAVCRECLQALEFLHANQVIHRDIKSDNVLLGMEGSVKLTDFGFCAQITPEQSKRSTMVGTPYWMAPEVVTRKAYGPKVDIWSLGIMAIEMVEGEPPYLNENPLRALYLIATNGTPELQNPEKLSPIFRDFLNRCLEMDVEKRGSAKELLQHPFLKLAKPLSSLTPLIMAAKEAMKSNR
Method in brief: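 FRET-based peptide cleavage assay: 0.29-6 ng PAK2 and 2 μM Ser/Thr 20 peptide in 50 mM HEPES pH 7.5, 10 mM MgCl2, 1 mM EGTA, 0.01% BRIJ-35, 1% DMSO final. Kinase reaction 60 min at room temperature, then 60 min development; 10-point 3-fold titrations, percent phosphorylation from fluorescence.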

PAK4, sequence (O96013 whole entry): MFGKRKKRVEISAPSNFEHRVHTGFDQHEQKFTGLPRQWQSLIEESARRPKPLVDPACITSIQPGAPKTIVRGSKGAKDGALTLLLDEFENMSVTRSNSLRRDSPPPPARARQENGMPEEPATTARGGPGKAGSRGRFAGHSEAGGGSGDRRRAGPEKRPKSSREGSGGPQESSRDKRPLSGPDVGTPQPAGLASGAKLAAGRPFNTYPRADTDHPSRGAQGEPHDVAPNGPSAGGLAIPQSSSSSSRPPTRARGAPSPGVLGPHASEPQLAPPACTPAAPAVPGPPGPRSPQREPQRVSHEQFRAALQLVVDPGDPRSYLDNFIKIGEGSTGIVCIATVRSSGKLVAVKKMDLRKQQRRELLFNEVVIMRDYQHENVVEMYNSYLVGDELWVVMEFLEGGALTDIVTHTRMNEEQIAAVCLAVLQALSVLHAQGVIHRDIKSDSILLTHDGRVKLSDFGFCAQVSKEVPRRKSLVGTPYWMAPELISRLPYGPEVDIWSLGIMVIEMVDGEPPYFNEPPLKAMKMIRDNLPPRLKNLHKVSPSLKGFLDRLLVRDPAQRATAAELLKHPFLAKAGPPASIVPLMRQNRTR

Row | pIC50 [1] | pIC50 [2] | pIC50 [3] | pIC50 [4] | Compound
1 | ≤ 5.30 | 6.30 to 7.30 | 5.30 to 6.30 | 5.30 to 6.30 | Cc1nc(-c2ccc(Cl)c(-c3cc4cnc(Nc5ccc(C6CCN(C)CC6)cc5)nc4n(C)c3=O)c2)no1
2 | 5.30 to 6.30 | > 7.30 | > 7.30 | > 7.30 | CCn1c(=O)c(-c2ccc(-c3cccnc3F)cc2Cl)cc2cnc(Nc3ccc(C4CCN(C(C)C)CC4)cc3)nc21
3 | ≤ 5.30 | 6.30 to 7.30 | 6.30 to 7.30 | 6.30 to 7.30 | CCn1c(=O)c(-c2ccc(-c3cnc(C)s3)cc2Cl)cc2cnc(Nc3ccc(CCN4CCOCC4)cc3)nc21
4 | 5.30 to 6.30 | 6.30 to 7.30 | 6.30 to 7.30 | 6.30 to 7.30 | CNC(=O)c1cc(-c2ccc(-c3cc4cnc(Nc5ccc(C6CCNCC6)cc5)nc4n(C)c3=O)c(Cl)c2)ccn1
5 | 5.30 to 6.30 | > 7.30 | > 7.30 | > 7.30 | CCn1c(=O)c(-c2ccc(-c3cncs3)cc2Cl)cc2cnc(Nc3ccc(N4CCNCC4)c(F)c3)nc21
6 | ≤ 5.30 | < 5.30 | < 5.30 | < 5.30 | CCn1c(=O)c(-c2ccc(C3CC3)s2)cc2cnc(Nc3ccc(N4CCN(C)CC4)cc3)nc21
7 | ≤ 5.30 | 6.30 to 7.30 | > 7.30 | 6.30 to 7.30 | CCn1c(=O)c(-c2ccc(-c3ccc(F)nc3C)cc2Cl)cc2cnc(Nc3ccc(C4CCN(C)CC4)cc3)nc21
8 | ≤ 5.30 | > 7.30 | > 7.30 | > 7.30 | CCN1CCC(c2ccc(Nc3ncc4cc(-c5ccc(-c6noc(C)n6)cc5Cl)c(=O)n(CC)c4n3)cc2F)CC1
9 | ≤ 5.30 | < 5.30 | < 5.30 | < 5.30 | CCn1c(=O)c(-c2ccc(-c3nnn[nH]3)cc2Cl)cc2cnc(Nc3ccc(N4CCN(C)CC4)cc3)nc21
10 | ≤ 5.30 | > 7.30 | > 7.30 | > 7.30 | CCn1c(=O)c(-c2ccc(-c3cncs3)cc2Cl)cc2cnc(Nc3ccc(N4CCN(C(C)C)CC4)c(F)c3)nc21
11 | ≤ 5.30 | 6.30 to 7.30 | > 7.30 | 6.30 to 7.30 | CCN1CCC(c2ccc(Nc3ncc4cc(-c5ccc(-c6cccnc6C)cc5Cl)c(=O)n(CC)c4n3)cc2F)CC1
12 | 5.30 to 6.30 | < 5.30 | < 5.30 | < 5.30 | CC(=O)Nc1ccc(-c2ccc(Cl)c(-c3cc4cnc(Nc5ccc(C6CCN(C)CC6)cc5)nc4n(C)c3=O)c2)cn1
13 | ≤ 5.30 | 5.30 to 6.30 | 6.30 to 7.30 | 5.30 to 6.30 | CCn1c(=O)c(-c2ccc(-c3cccnc3)cc2Cl)cc2cnc(Nc3ccccc3)nc21
14 | ≤ 5.30 | 6.30 to 7.30 | > 7.30 | > 7.30 | CCn1c(=O)c(-c2ccc(-c3cc(C)nc(C)n3)cc2Cl)cc2cnc(Nc3ccc(C4CCN(C)CC4)cc3)nc21
15 | 5.30 to 6.30 | > 7.30 | > 7.30 | > 7.30 | CCn1c(=O)c(-c2ccc(-c3cnc(C)s3)cc2Cl)cc2cnc(Nc3ccc(C4=CCNCC4)cc3)nc21
16 | 5.30 to 6.30 | 6.30 to 7.30 | > 7.30 | > 7.30 | CCn1c(=O)c(-c2ccc(-c3ccc(C)nc3)cc2Cl)cc2cnc(Nc3ccc(C4CCN(C)CC4)cc3)nc21
17 | 6.30 to 7.30 | > 7.30 | > 7.30 | > 7.30 | CCn1c(=O)c(-c2ccc(-c3cccnc3F)cc2Cl)cc2cnc(Nc3ccc(CCN(C)C)cc3)nc21
18 | ≤ 5.30 | 6.30 to 7.30 | > 7.30 | > 7.30 | CCN(CC)CCc1ccc(Nc2ncc3cc(-c4ccc(-c5cccnc5C)cc4Cl)c(=O)n(CC)c3n2)cc1
19 | ≤ 5.30 | < 5.30 | < 5.30 | < 5.30 | CC(=O)Nc1ccnc(-c2ccc(Cl)c(-c3cc4cnc(Nc5ccc(C6CCN(C)CC6)cc5)nc4n(C)c3=O)c2)n1
20 | ≤ 5.30 | 5.30 to 6.30 | 5.30 to 6.30 | 5.30 to 6.30 | CCOC(=O)c1cncnc1-c1ccc(-c2cc3cnc(Nc4ccc(C5CCN(C)CC5)cc4)nc3n(CC)c2=O)c(Cl)c1
21 | ≤ 5.30 | 6.30 to 7.30 | > 7.30 | > 7.30 | CCn1c(=O)c(-c2ccc(-c3ccnc(C(=O)NC)c3)cc2Cl)cc2cnc(Nc3ccc(N4CCN(C)CC4)cc3)nc21
22 | 5.30 to 6.30 | > 7.30 | > 7.30 | > 7.30 | CCn1c(=O)c(-c2ccc(-c3cccnc3)cc2Cl)cc2cnc(Nc3ccc(CN(C)C)cc3)nc21

Row | pIC50 [1] | pIC50 [2] | pIC50 [3] | pIC50 [4] | Compound
23 | ≤ 5.30 | 6.30 to 7.30 | > 7.30 | 6.30 to 7.30 | CCn1c(=O)c(-c2ccc(-c3cccnc3C)cc2Cl)cc2cnc(Nc3ccc(C4CCN(C)CC4)c(F)c3)nc21
24 | 5.30 to 6.30 | > 7.30 | > 7.30 | > 7.30 | CCn1c(=O)c(-c2ccc(-c3noc(C)n3)cc2Cl)cc2cnc(Nc3ccc(N4CCN(C)CC4)cc3)nc21
25 | ≤ 5.30 | 6.30 to 7.30 | 6.30 to 7.30 | 5.30 to 6.30 | CCn1c(=O)c(-c2ccc(-c3ccsc3)cc2)cc2cnc(Nc3ccc(N4CCN(C)CC4)cc3)nc21
26 | ≤ 5.30 | 6.30 to 7.30 | > 7.30 | > 7.30 | CCn1c(=O)c(-c2ccc(-c3cnn(C)c3)cc2Cl)cc2cnc(Nc3ccc(N4CCN(C)CC4)cc3)nc21
27 | ≤ 5.30 | 5.30 to 6.30 | 6.30 to 7.30 | 6.30 to 7.30 | CNC(=O)c1cc(-c2ccc(-c3cc4cnc(Nc5ccc(CCN(C)C)cc5)nc4n(C)c3=O)c(Cl)c2)ccn1
28 | ≤ 5.30 | 6.30 to 7.30 | > 7.30 | > 7.30 | Cc1ncc(-c2ccc(-c3cc4cnc(Nc5ccc(C6CCN(C)CC6)cc5)nc4n(C)c3=O)c(Cl)c2)s1
29 | 5.30 to 6.30 | > 7.30 | > 7.30 | > 7.30 | CCN1CCN(c2ccc(Nc3ncc4cc(-c5ccc(-c6cccnc6)cc5Cl)c(=O)n(CC)c4n3)cc2)CC1
30 | 5.30 to 6.30 | 6.30 to 7.30 | > 7.30 | 6.30 to 7.30 | CCn1c(=O)c(-c2ccc(-c3ccnc(C)c3)cc2Cl)cc2cnc(Nc3ccc(C4CCNCC4)cc3)nc21
31 | 5.30 to 6.30 | > 7.30 | > 7.30 | > 7.30 | CCN1CCN(c2ccc(Nc3ncc4cc(-c5ccc(-c6cncnc6)cc5Cl)c(=O)n(CC)c4n3)cc2F)CC1
32 | ≤ 5.30 | 6.30 to 7.30 | 6.30 to 7.30 | 6.30 to 7.30 | CC(=O)N(C)c1cc(-c2cc3cnc(Nc4ccc(CCN(C)C)cc4)nc3n(C)c2=O)c(Cl)cc1-c1cccnc1
33 | 5.30 to 6.30 | > 7.30 | > 7.30 | > 7.30 | CCn1c(=O)c(-c2ccc(-c3cncnc3)cc2Cl)cc2cnc(Nc3ccc(N4CCNCC4)cc3)nc21
34 | ≤ 5.30 | 6.30 to 7.30 | > 7.30 | 6.30 to 7.30 | CCn1c(=O)c(-c2ccc(-c3cscn3)cc2Cl)cc2cnc(Nc3ccc(N4CCN(C)CC4)cc3)nc21
35 | 5.30 to 6.30 | > 7.30 | > 7.30 | > 7.30 | CN(C)CCc1ccc(Nc2ncc3cc(-c4ccc(-c5cccnc5F)cc4Cl)c(=O)n(C)c3n2)cc1
36 | ≤ 5.30 | 6.30 to 7.30 | 6.30 to 7.30 | 5.30 to 6.30 | Cc1ccc(-c2cccnc2)cc1-c1cc2cnc(Nc3ccc(C4CCN(C)CC4)cc3)nc2n(C)c1=O
37 | ≤ 5.30 | 6.30 to 7.30 | > 7.30 | > 7.30 | Cc1ncccc1-c1ccc(-c2cc3cnc(Nc4ccc(C5CCN(C)CC5)cc4)nc3n(C)c2=O)c(Cl)c1
38 | ≤ 5.30 | < 5.30 | < 5.30 | < 5.30 | CCn1c(=O)c(-c2ccc(-c3cccnc3)s2)cc2cnc(Nc3ccc(N4CCN(C)CC4)cc3)nc21
39 | 5.30 to 6.30 | > 7.30 | > 7.30 | > 7.30 | CCn1c(=O)c(-c2ccc(-c3cnc(C)s3)cc2Cl)cc2cnc(Nc3ccc(C4CCNCC4)c(F)c3)nc21
40 | ≤ 5.30 | < 5.30 | 6.30 to 7.30 | 5.30 to 6.30 | CCn1c(=O)c(-c2ccc(-c3cncs3)cc2)cc2cnc(Nc3ccc(N4CCN(C)CC4)cc3)nc21
41 | ≤ 5.30 | 6.30 to 7.30 | > 7.30 | > 7.30 | CCn1c(=O)c(-c2ccc(-c3scnc3C)cc2Cl)cc2cnc(Nc3ccc(N4CCN(C(C)C)CC4)cc3)nc21
42 | ≤ 5.30 | > 7.30 | > 7.30 | > 7.30 | CCn1c(=O)c(-c2ccc(-c3ccncc3)cc2Cl)cc2cnc(Nc3ccc(N4CCN(C)CC4)cc3)nc21
43 | 5.30 to 6.30 | > 7.30 | > 7.30 | > 7.30 | CCN1CCC(c2ccc(Nc3ncc4cc(-c5ccc(-c6ccnc(C)c6)cc5Cl)c(=O)n(CC)c4n3)cc2F)CC1
44 | ≤ 5.30 | < 5.30 | < 5.30 | 6.30 to 7.30 | CCn1c(=O)c(-c2ccc(-c3ccc(C(=O)NC)nc3)cc2Cl)cc2cnc(Nc3ccc(N4CCN(C)CC4)cc3)nc21
